# Measurements from the NIST ThermoML archive (doi:10.1021/je700062x).
# Numbers after ± are expanded uncertainties.
# Assay: wn = mass fraction of the nth substance listed
# Conditions: 101 kPa, Liquid, controlled-strain rheometer (ARES-RFS, TA Instruments)
Structure (SMILES),"viscosity (273.15 K, w1 = 0.05)","viscosity (273.15 K, w1 = 0.1)","viscosity (273.15 K, w1 = 0.2)","viscosity (273.15 K, w1 = 0.3)","viscosity (273.15 K, w1 = 0.4)","viscosity (278.15 K, w1 = 0.05)","viscosity (278.15 K, w1 = 0.1)","viscosity (278.15 K, w1 = 0.2)","viscosity (278.15 K, w1 = 0.3)","viscosity (278.15 K, w1 = 0.4)","viscosity (283.15 K, w1 = 0.05)","viscosity (283.15 K, w1 = 0.1)","viscosity (283.15 K, w1 = 0.2)","viscosity (283.15 K, w1 = 0.3)","viscosity (283.15 K, w1 = 0.4)","viscosity (293.15 K, w1 = 0.05)","viscosity (293.15 K, w1 = 0.1)","viscosity (293.15 K, w1 = 0.2)","viscosity (293.15 K, w1 = 0.3)","viscosity (293.15 K, w1 = 0.4)",also measured
O=C[C@H](O)[C@@H](O)[C@@H](O)[C@H](O)CO [(+)-galactose] + O,2.42 ± 0.26 mPa·s,2.779 ± 0.31 mPa·s,4.27 ± 0.43 mPa·s,6.93 ± 0.7 mPa·s,14.56 ± 1.5 mPa·s,2.077 ± 0.21 mPa·s,2.4 ± 0.28 mPa·s,3.37 ± 0.47 mPa·s,5.34 ± 0.54 mPa·s,11.17 ± 1.1 mPa·s,1.699 ± 0.17 mPa·s,2.107 ± 0.21 mPa·s,2.76 ± 0.45 mPa·s,4.57 ± 0.57 mPa·s,9 ± 0.91 mPa·s,1.397 ± 0.22 mPa·s,1.52 ± 0.35 mPa·s,2.1 ± 0.24 mPa·s,3.27 ± 0.66 mPa·s,6.11 ± 0.61 mPa·s,"viscosity (268.15 K, w1 = 0.3): 8.95 ± 1.3 mPa·s; viscosity (268.15 K, w1 = 0.4): 18.84 ± 1.9 mPa·s; viscosity (273.15 K, w1 = 0.15): 3.325 ± 0.33 mPa·s; viscosity (278.15 K, w1 = 0.15): 2.77 ± 0.28 mPa·s; viscosity (283.15 K, w1 = 0.15): 2.469 ± 0.25 mPa·s; viscosity (293.15 K, w1 = 0.15): 1.77 ± 0.31 mPa·s"
O=C(CO)[C@@H](O)[C@H](O)[C@H](O)CO [D-fructose] + O,2.345 ± 0.23 mPa·s,2.89 ± 0.33 mPa·s,4.2 ± 0.42 mPa·s,6.39 ± 0.78 mPa·s,14.02 ± 1.4 mPa·s,1.999 ± 0.2 mPa·s,2.44 ± 0.24 mPa·s,3.39 ± 0.52 mPa·s,5.5 ± 0.55 mPa·s,10.84 ± 1.1 mPa·s,1.681 ± 0.17 mPa·s,1.991 ± 0.2 mPa·s,2.859 ± 0.29 mPa·s,4.45 ± 0.45 mPa·s,8.07 ± 0.81 mPa·s,1.26 ± 0.28 mPa·s,1.43 ± 0.35 mPa·s,2.092 ± 0.21 mPa·s,3.07 ± 0.38 mPa·s,5.67 ± 0.57 mPa·s,"viscosity (263.15 K, w1 = 0.7): 4270 ± 1100 mPa·s; viscosity (268.15 K, w1 = 0.3): 7.97 ± 0.8 mPa·s; viscosity (268.15 K, w1 = 0.4): 18.51 ± 1.9 mPa·s; viscosity (268.15 K, w1 = 0.5): 54.8 ± 5.7 mPa·s; viscosity (268.15 K, w1 = 0.6): 238 ± 27 mPa·s; viscosity (268.15 K, w1 = 0.7): 2446 ± 500 mPa·s; viscosity (273.15 K, w1 = 0.5): 35.06 ± 3.6 mPa·s; viscosity (273.15 K, w1 = 0.6): 148.7 ± 16 mPa·s; viscosity (273.15 K, w1 = 0.7): 1418 ± 230 mPa·s; viscosity (278.15 K, w1 = 0.5): 25.27 ± 2.6 mPa·s; viscosity (278.15 K, w1 = 0.6): 103.4 ± 11 mPa·s; viscosity (278.15 K, w1 = 0.7): 843 ± 120 mPa·s; viscosity (283.15 K, w1 = 0.5): 19.44 ± 2 mPa·s; viscosity (283.15 K, w1 = 0.6): 72 ± 7.5 mPa·s; viscosity (283.15 K, w1 = 0.7): 509.4 ± 63 mPa·s; viscosity (293.15 K, w1 = 0.5): 14.33 ± 1.4 mPa·s; viscosity (293.15 K, w1 = 0.6): 38.31 ± 3.9 mPa·s; viscosity (293.15 K, w1 = 0.7): 220.7 ± 24 mPa·s"
O=C[C@H](O)[C@@H](O)[C@H](O)[C@H](O)CO [D-glucose] + O,2.39 ± 0.59 mPa·s,2.908 ± 0.31 mPa·s,4.3 ± 0.57 mPa·s,8.17 ± 0.82 mPa·s,15.28 ± 1.5 mPa·s,1.98 ± 0.4 mPa·s,2.47 ± 0.41 mPa·s,3.46 ± 0.45 mPa·s,5.94 ± 0.6 mPa·s,11.19 ± 1.9 mPa·s,1.76 ± 0.35 mPa·s,2.02 ± 0.33 mPa·s,2.93 ± 0.29 mPa·s,4.83 ± 0.48 mPa·s,9.63 ± 0.97 mPa·s,1.36 ± 0.33 mPa·s,1.58 ± 0.42 mPa·s,2.13 ± 0.26 mPa·s,3.46 ± 0.35 mPa·s,6.21 ± 0.62 mPa·s,"viscosity (268.15 K, w1 = 0.5): 50.8 ± 5.2 mPa·s; viscosity (273.15 K, w1 = 0.5): 37.31 ± 3.8 mPa·s; viscosity (278.15 K, w1 = 0.5): 26.54 ± 2.7 mPa·s; viscosity (283.15 K, w1 = 0.5): 20.52 ± 2.1 mPa·s; viscosity (293.15 K, w1 = 0.5): 13.43 ± 1.4 mPa·s"
OC[C@H]1O[C@@](CO)(O[C@H]2O[C@H](CO)[C@@H](O)[C@H](O)[C@H]2O)[C@@H](O)[C@@H]1O [D-sucrose] + O,2.45 ± 0.33 mPa·s,2.978 ± 0.52 mPa·s,4.42 ± 0.45 mPa·s,7.19 ± 0.74 mPa·s,19.81 ± 2 mPa·s,1.91 ± 0.45 mPa·s,2.472 ± 0.25 mPa·s,3.48 ± 0.35 mPa·s,5.99 ± 0.6 mPa·s,14.22 ± 1.4 mPa·s,1.72 ± 0.38 mPa·s,2.02 ± 0.33 mPa·s,3.01 ± 0.38 mPa·s,5.06 ± 0.51 mPa·s,11.31 ± 1.2 mPa·s,1.246 ± 0.19 mPa·s,1.48 ± 0.33 mPa·s,2.38 ± 0.42 mPa·s,3.46 ± 0.4 mPa·s,7.53 ± 0.75 mPa·s,"viscosity (268.15 K, w1 = 0.4): 25.48 ± 2.6 mPa·s; viscosity (268.15 K, w1 = 0.5): 92.4 ± 11 mPa·s; viscosity (268.15 K, w1 = 0.6): 491.8 ± 50 mPa·s; viscosity (273.15 K, w1 = 0.5): 66.8 ± 6.8 mPa·s; viscosity (273.15 K, w1 = 0.6): 316.5 ± 32 mPa·s; viscosity (278.15 K, w1 = 0.5): 42.93 ± 4.4 mPa·s; viscosity (278.15 K, w1 = 0.6): 228.9 ± 50 mPa·s; viscosity (283.15 K, w1 = 0.5): 31.33 ± 3.2 mPa·s; viscosity (283.15 K, w1 = 0.6): 153.1 ± 16 mPa·s; viscosity (293.15 K, w1 = 0.5): 20.09 ± 2 mPa·s; viscosity (293.15 K, w1 = 0.6): 83.9 ± 8.5 mPa·s"
